According to publication PMC11204085, “Molecular Characterization of Chemosensory Protein (CSP) Genes and the Involvement of AgifCSP5 in the Perception of Host Location in the Aphid Parasitoid Aphidius gifuensis” (International Journal of Molecular Sciences, 2024):
Entries after “also recorded” stand apart in the source; their conditions may differ. Like-named read-outs stand apart in the source and are kept apart here. Values belong to the compound of their own block, whether it stands above or below them.

Legend:
[1] = target: AgifCSP5 (Aphidius gifuensis, UniProt A0A3Q9ELG9); assay: Fluorescence competitive binding assay with 1-NPN probe, wild-type AgifCSP5; settings: for Binding affinity in words: wild-type AgifCSP5
Source text: (§1) The candidate VOCs were mainly derived from various organic volatiles in wheat field habitats, referring to the compounds related to wheat plants and wheat aphids previously reported in a published paper by Jiang et al. in 2022 and 2023 [11, 12], including four groups of ligands: (1) aphid alarm pheromone components; (2) aphid sex pheromone; (3) green leaf volatiles of wheat; and (4) aphid-induced plant volatiles. […] The classes, CAS numbers, and purities of the chemicals used in these assays are listed in Appendix B. A Lengguang 970CRT spectrofluorimeter (Shanghai Jingmi, Shanghai, China) equipped with a 1 cm light path fluorimeter quartz cuvette was used to record the fluorescence intensity at room temperature with the following parameters: the excitation wavelength was set at 337 nm, the emission light wavelength was recorded at 350–500 nm, the high-speed scan mode was used, and the slit width was 10 nm. To determine the binding affinity of 1-NPN for AgifCSP5 proteins, a 2 µM protein solution diluted with 50 mM Tris-HCl at pH 7.4 was titrated with aliquots of the 1 mM 1-NPN stock solution to final concentrations ranging from 2–40 μM. Ligands bound to AgifCSP5 have a protein:ligand ratio of 1:1. Three independent repeats were carried out for all measurements. The binding affinity of AgifCSP5 for all ligands was calculated by the formula Ki = [IC50]/(1 + [1 − NPN]/K1-NPN), where the IC50 is defined as the concentration of a competitor that caused a 50% reduction in fluorescence intensity, K1-NPN is the dissociation constant (Kd) of the AgifCSP5/1-NPN complex, and [1-NPN] is the free concentration of 1-NPN.

[2] = system: A. gifuensis adults; assay: Y-tube olfactometer assay; format: in vivo, Aphidius gifuensis
Method: The behavioral responses of A. gifuensis to volatiles were tested using a Y-tube olfactometer (3.5 cm in diameter, arms 20 cm in length, and a stem 20 cm in length). The assay method was described by Guo et al., and minor improvements were made. The incoming air at a constant flow (300 mL/min) was first filtered using allochroic silica gel and activated carbon and then humidified with ultrapure water. The test compounds were serially diluted with paraffin oil to concentrations of 0.01, 0.1, 1, 10, and 100mg/mL. A total of 10 μL of tested volatile oil preloaded onto 1 cm diameter filter paper was placed in the chamber of the chosen treatment arm of the Y-tube olfactometer, and the same filter paper in another chamber of the chosen control arm was loaded with 10 μL of liquid paraffin. The choice of each adult introduced into the Y-tube stem within 5 min was recorded. The experiments were performed in a dark room at room temperature (25 ± 1 °C), and a light-emitting diode installed at 30 cm was used as the light source. In total, no fewer than 60 adults (at least 30 from each sex) were used in each treatment. After 5 insects were tested, we switched the positions of the volatile arm and the control arm, and after a total of 10 insects were tested, the Y-tube olfactometer was washed with 75% ethanol and air-dried.

[3] = target: Y75A mutant of AgifCSP5 (Aphidius gifuensis, UniProt A0A3Q9ELG9, Y95A); assay: Fluorescence competitive binding assay, Y75A mutant
Source text: as §1
(§2) The mutagenesis primers for the targeted key amino acid residues were designed online (https://crm.vazyme.com/cetool/singlepoint.html (accessed on 24 December 2023)) according to the protocols of the Mut Express II Fast Mutagenesis Kit V2 (Vazyme, China) (Appendix B). Mutations were obtained by using Phanta Max Superfidelity DNA Polymerase with recombinant Plasmid pET-30a/AgifCSP5 plasmid DNA as a template. The plasmids of the mutants were verified by DNA sequencing. The mutated proteins were then expressed and purified, as described above. After protein concentration determination, the binding affinities of the mutants with ligands that previously bound well to the AgifCSP5 protein were verified using fluorescence competitive binding assays.

[4] = target: R24A mutant of AgifCSP5 (Aphidius gifuensis, UniProt A0A3Q9ELG9, R44A); assay: Fluorescence competitive binding assay, R24A mutant
Source text: as §1, §2

[5] = wild-type AgifCSP5, 1-NPN displacement, pH 7.4, read-out: IC50
[6] = wild-type AgifCSP5, 1-NPN displacement, pH 7.4, read-out: Ki

Sequence of AgifCSP5 (A0A3Q9ELG9 entry or part of it): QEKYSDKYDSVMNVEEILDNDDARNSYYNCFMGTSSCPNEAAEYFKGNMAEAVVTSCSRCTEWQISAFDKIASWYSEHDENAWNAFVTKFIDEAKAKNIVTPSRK
Sequence of Y75A mutant of AgifCSP5 (A0A3Q9ELG9 entry or part of it Y95A): as the sequence (A0A3Q9ELG9 entry or part of it) above, with Y75A counted along it
Sequence of R24A mutant of AgifCSP5 (A0A3Q9ELG9 entry or part of it R44A): as the sequence (A0A3Q9ELG9 entry or part of it) above, with R24A counted along it

Compound: CCCCCC/C=C/C=O [trans-2-Nonenal]
IC50 [1]: 16.6 ± 1.78 µM
Ki [1]: 12.3 ± 1.31 µM
Behavioral response in words ([2]; 10 mg/mL): significantly attracted only female adults; also recorded: attractive
Behavioral response in words ([2]; 100 mg/mL): significantly repelled
IC50 [3]: > 40 µM
IC50 [4]: 25.9 ± 16.4 µM
Ki [4]: 23.7 ± 15 µM

Compound: OCc1ccccc1 [Benzyl alcohol]
IC50 [1]: 22.4 ± 4.58 µM
Ki [1]: 16.6 ± 3.39 µM

Compound: CC/C=C\CC=O [cis-3-Hexenal]
IC50 [1]: 29.8 ± 1.55 µM
Ki [1]: 22 ± 1.15 µM

Compound: C=CC(=C)CC/C=C(\C)CCC=C(C)C [(E)-β-Farnesene]
Binding affinity in words [1]: weakly binds
IC50 [1, 5]: 25.9 ± 1.16 µM
Ki [1, 6]: 19.2 ± 0.86 µM
Binding affinity in words ([1]; listed as EBF): weak binding affinities

Compound: CCCC/C=C\CCO [cis-3-Octen-1-ol]
IC50 [1]: 17 ± 1.08 µM
Ki [1]: 12.6 ± 0.8 µM
Behavioral response in words ([2]; 10 mg/mL): significantly repelled only males
Behavioral response in words ([2]; 100 mg/mL): significantly repelled; also recorded: repellent effects
Behavioral response in words ([2]; low concentrations): did not show any repelling or attracting activity
IC50 [3]: 22.9 ± 6.68 µM
Ki [3]: 16.3 ± 4.75 µM
IC50 [4]: 18.9 ± 9.83 µM
Ki [4]: 17.4 ± 9.03 µM

Compound: CCC/C=C\CO [cis-2-Hexen-1-ol]
IC50 [1]: 34.5 ± 2.09 µM
Ki [1]: 25.6 ± 1.55 µM

Compound: CC1=CC[C@@H]2C[C@H]1C2(C)C [(1R)-(+)-α-Pinene]
IC50 [1]: 22.5 ± 2.42 µM
Ki [1]: 16.7 ± 1.79 µM

Compound: C=CC(C)(O)CCC=C(C)C (stereo not shown) [Linalool]
IC50 [1]: 25.5 ± 3.46 µM
Ki [1]: 18.9 ± 2.56 µM

Compound: CCCCCCCCCCCCCC=O [Tetradecanal]
IC50 [1]: 20.6 ± 2.11 µM
Ki [1]: 15.3 ± 1.57 µM
Binding affinity of R24A compared with wild type, in words ([4]; R24A mutant): increased the binding affinity

Compound: C=C(C)[C@@H]1CC=C(C)C(=O)C1 [(R)-(−)-Carvone]
IC50 [1]: 23 ± 0.91 µM
Ki [1]: 17 ± 0.67 µM

Compound: C=C(C)[C@@H]1CC=C(C)CC1 [(S)-(−)-Limonene]
IC50 [1, 5]: 28.4 ± 2.84 µM
Ki [1, 6]: 21 ± 2.1 µM

Compound: O=Cc1ccccc1 [Benzaldehyde]
IC50 [1]: 18.2 ± 0.88 µM
Ki [1]: 13.5 ± 0.65 µM
Behavioral response in words ([2]; 100 mg/mL): significantly repelled; also recorded: repellent effects; also recorded: strongly repelled
Behavioral response in words ([2]; low concentrations): did not show any repelling or attracting activity
IC50 [3]: > 40 µM
IC50 [4]: 17.3 ± 3.62 µM
Ki [4]: 15.8 ± 3.33 µM

Compound: CC(=O)OC/C=C(\C)CCC=C(C)C [Geranyl acetate]
IC50 [1]: 27.3 ± 4.87 µM
Ki [1]: 20.2 ± 3.61 µM

Compound: CC/C=C\CCO [Leaf alcohol]
IC50 [1, 5]: 27.9 ± 0.8 µM
Ki [1, 6]: 20.6 ± 0.59 µM

Compound: COC(=O)c1ccccc1O [Methyl salicylate]
IC50 [1]: 20.6 ± 3.58 µM
Ki [1]: 15.3 ± 2.65 µM

Compound: CC1=CCC(C(C)(C)O)CC1 (stereo not drawn) [(+)-α-Terpineol]
IC50 [1, 5]: 29.4 ± 1.6 µM
Ki [1, 6]: 21.8 ± 1.19 µM

Compound: CC1=COC(=O)C2C(C)CCC12 (stereo not shown) [Nepetalactone]
Binding affinity in words [1]: weakly binds
IC50 [1, 5]: 33.8 ± 6.81 µM
Ki [1, 6]: 25 µM
Binding affinity in words ([1]; listed as nephelactone): weak binding affinities

IC50 [1]: 24.5 ± 1.43 µM
Ki [1]: 18.2 ± 1.06 µM
Compound: CC(=O)CCC=C(C)C [6-Methyl-5-hepten-2-one]

Compound: C=CC(=C)CCC=C(C)C [Myrcene]
IC50 [1]: 22.5 ± 2.51 µM
Ki [1]: 16.7 ± 1.86 µM

Compound: CCCCCCCCCCCCCCCCCO [1-Heptadecanol]
IC50 [1]: 21.4 ± 1.07 µM
Ki [1]: 15.8 ± 0.79 µM

Compound: C=C/C(C)=C\CC=C(C)C [(Z)-β-ocimene]
IC50 [1, 5]: 18 ± 2.89 µM
Ki [1, 6]: 13.3 ± 2.14 µM
Behavioral response in words ([2]; 100 mg/mL): significantly repelled; also recorded: repellent effects
Behavioral response in words ([2]; low concentrations): did not show any repelling or attracting activity
IC50 ([3]; Y75A mutant, read-out: IC50): 30.8 ± 7.87 µM
Ki ([3]; Y75A mutant, read-out: Ki): 21.9 ± 5.59 µM
IC50 ([4]; R24A mutant, read-out: IC50): 18.2 ± 1.97 µM
Ki ([4]; R24A mutant, read-out: Ki): 16.7 ± 2.73 µM

Compound: CC/C=C\CCO [cis-3-Hexen-1-ol]
IC50 [1]: 23.4 ± 5.54 µM
Ki [1]: 17.3 ± 4.1 µM

Compound: COc1cc(C(C)=O)cc(OC)c1O [Acetosyringone]
IC50 [1]: 36.9 ± 6.77 µM
Ki [1]: 27.3 ± 5.01 µM

Compound: c1ccc(Nc2cccc3ccccc23)cc1 [1-NPN, N-phenyl-1-naphthylamine, reference compound]
Kd [1]: 3.64 µM
Kd [3]: 3.13 µM
Kd [4]: 14.4 µM

Compound: C=C(C)[C@H]1CC=C(C)CC1 [(R)-(+)-Limonene]
IC50 [1, 5]: 25.2 ± 4.06 µM
Ki [1, 6]: 18.7 ± 3.01 µM

Compound: CCCCCCCCCCCCCCCCCCCCC [Heneicosane]
IC50 [1]: 22.5 ± 2.42 µM
Ki [1]: 16.7 ± 1.79 µM

Compound: CC/C=C\CCOC(C)=O [cis-3-Hexenyl acetate]
IC50 [1]: 24.5 ± 0.49 µM
Ki [1]: 18.2 ± 0.36 µM

Compound: CCCCCCCCCCCCC [Tridecane]
IC50 [1]: > 40 µM

Compound: CC/C=C\CC1C(=O)CCC1CC(=O)OC (stereo not shown) [Methyl jasmonate]
IC50 [1]: 20.1 ± 1.92 µM
Ki [1]: 14.9 ± 1.42 µM
IC50 [3]: 29.7 ± 1.06 µM
Ki [3]: 21.1 ± 0.75 µM
IC50 [4]: 8.89 ± 0.95 µM
Ki [4]: 8.16 ± 0.87 µM
Binding affinity of R24A compared with wild type, in words ([4]; R24A mutant): increased the binding affinity; also recorded: increased affinities

Compound: CCCCCCCCCCCCCCCCCCC [Nonadecane]
IC50 [1]: 38.9 ± 7.44 µM
Ki [1]: 28.8 ± 5.51 µM

Compound: C=C1CCC2(C(C)C)CC12 (stereo not shown) [Sabinene]
IC50 [1]: 16.4 ± 0.94 µM
Ki [1]: 12.1 ± 0.69 µM
Behavioral response in words ([2]; 10 mg/mL): significantly repelled only males
Behavioral response in words ([2]; 100 mg/mL): significantly repelled; also recorded: repellent effects
Behavioral response in words ([2]; low concentrations): did not show any repelling or attracting activity
IC50 [3]: 26.2 ± 11.6 µM
Ki [3]: 18.6 ± 8.23 µM
IC50 [4]: 22.4 ± 14.6 µM
Ki [4]: 20.6 ± 13.4 µM

Compound: CCC/C=C/C=O [trans-2-Hexen-1-al]
IC50 [1]: 18.1 ± 1.18 µM
Ki [1]: 13.4 ± 0.87 µM
Behavioral response in words ([2]; 10 mg/mL): obviously repelled
Behavioral response in words ([2]; 100 mg/mL): significantly repelled; also recorded: repellent effects
Behavioral response in words ([2]; 100 mg/mL, listed as trans-2-hexenal): strongly repelled
Behavioral response in words ([2]; low concentrations): did not show any repelling or attracting activity
IC50 [3]: 14.6 ± 5.42 µM
Ki [3]: 10.4 ± 3.85 µM
IC50 [4]: 15 ± 8.09 µM
Ki [4]: 13.8 ± 7.43 µM
